Source: patent publication US4493843A, “Indole and indoline carboxylic acid compounds and method of use” (May & Baker Limited, priority 1980, dated 1985)
Where a name gives a salt, the structure may show the parent alone. Read-outs that look alike come from different tables or passages of the source.

Test system: serum cholesterol and serum triglycerides
Experiment: Hypolipidaemic activity in rats (compound in diet, last 7 of 10 days)
Assay type: in vivo, Male Wistar rats
Conditions: 7 days; for change in vivo at 0.2 % strength / change in vivo at 0.1 % strength / change in vivo at 0.03 % strength: Rattus norvegicus, po, 168 h; for change in vivo at 0.1 % strength: 0.1 % w/w dose in diet; for change in vivo at 0.03 % strength: 0.03 % w/w dose in diet
Protocol: Hypolipidaemic Activity in Rats
Male Wistar rats each weighing between 120 and 150 g were caged in groups of eight and fed a powdered diet for 10 days. For the last 7 days of that period the test compound was administered orally by mixing the compound in the diet and allowing the animals to feed normally. Food consumption was measured on day 9 for each group.
At noon on day 10 the animals were killed by inhalation of carbon dioxide from solid carbon dioxide. A sample of blood was removed by cardiac puncture and the serum cholesterol and serum triglycerides were analysed by means of an autoanalyser.
Control groups (receiving only the normal, unmedicated diet) were included with each test.
The percentage reductions in the concentrations of serum cholesterol and serum triglycerides were calculated by comparison with the simultaneous controls, for each concentration of the test compound used.

[1] = 0.2 % w/w dose in diet, read-out: % change in serum cholesterol compared with control
[2] = 0.2 % w/w dose in diet, read-out: % change in serum triglycerides compared with control
[3] = read-out: % change in serum cholesterol compared with control
[4] = read-out: % change in serum triglycerides compared with control

Q: With `CCCCCCCCCCCCCCCC1Cc2cc(C(=O)O)ccc2N1` (racemic) [Compound AAA, (RS)-2-(n-pentadecyl)indoline-5-carboxylic acid] as the molecule, how does the change in vivo at 0.2 % strength [1] read?
A: The change in vivo at 0.2 % strength was -12%.

Q: What about the change in vivo at 0.2 % strength [2] of the same molecule?
A: Its change in vivo at 0.2 % strength is -55%.

Q: With `CCCCCCCC1Cc2cc(C(=O)O)ccc2N1` (racemic) [Compound ABB, (RS)-2-(n-heptyl)indoline-5-carboxylic acid] as the molecule, how does the change in vivo at 0.2 % strength [1] read?
A: The change in vivo at 0.2 % strength was -18%.

Q: What about the change in vivo at 0.2 % strength [2] of the same molecule?
A: Its change in vivo at 0.2 % strength is -34%.

Q: With `CCCCCCCCCCC1Cc2cc(C(=O)O)ccc2N1` (racemic) [Compound ACC, (RS)-2-(n-decyl)indoline-5-carboxylic acid] as the molecule, how does the change in vivo at 0.2 % strength [1] read?
A: The change in vivo at 0.2 % strength was -26%.

Q: And the change in vivo at 0.2 % strength [2]?
A: The change in vivo at 0.2 % strength was -71%.

Q: For `CCCCCCCCCCCCCCCCCC1Cc2cc(C(=O)O)ccc2N1` (racemic) [Compound ADD, (RS)-2-(n-heptadecyl)indoline-5-carboxylic acid], which change in vivo at 0.2 % strength [1] is on record?
A: The change in vivo at 0.2 % strength was -6%.

Q: What about the change in vivo at 0.2 % strength [2] of the same molecule?
A: The change in vivo at 0.2 % strength was -40%.

Q: With `CCCCCCCC1Cc2ccc(C(=O)O)cc2N1` (racemic) [Compound AEE, (RS)-2-(n-heptyl)indoline-6-carboxylic acid] as the molecule, how does the change in vivo at 0.2 % strength [1] read?
A: The change in vivo at 0.2 % strength was -22%.

Q: And the change in vivo at 0.2 % strength [2]?
A: Its change in vivo at 0.2 % strength is -37%.

Q: Which change in vivo at 0.2 % strength [1] does the source give for `CCCCCCCCCCCC1Cc2ccc(C(=O)O)cc2N1` (racemic) [Compound AFF, (RS)-2-(n-undecyl)indoline-6-carboxylic acid] here?
A: Its change in vivo at 0.2 % strength is -38%.

Q: What about the change in vivo at 0.2 % strength [2] of the same molecule?
A: The change in vivo at 0.2 % strength was -58%.

Q: Which change in vivo at 0.2 % strength [1] does the source give for `CCCCCCCCCCCCCCC1Cc2ccc(C(=O)O)cc2N1` (racemic) [Compound AGG, (RS)-2-(n-tetradecyl)indoline-6-carboxylic acid] here?
A: The change in vivo at 0.2 % strength was -8%.

Q: And the change in vivo at 0.2 % strength [2]?
A: The change in vivo at 0.2 % strength was -23%.

Q: `CCCCCCCCCCCC1Cc2ccc(C(=O)O)cc2N1C` (racemic) [Compound BII, (RS)-1-methyl-2-(n-undecyl)indoline-6-carboxylic acid] was tested. Which change in vivo at 0.2 % strength [1] did it give?
A: The change in vivo at 0.2 % strength was 0%.

Q: What about the change in vivo at 0.2 % strength [2] of the same molecule?
A: The change in vivo at 0.2 % strength was -30%.

Q: How did the change in vivo at 0.2 % strength [1] turn out when `CCCCCCCCCCCC1Cc2cc(C(=O)O)ccc2N1C` (racemic) [Compound BJJ, (RS)-1-methyl-2-(n-undecyl)indoline-5-carboxylic acid] was run?
A: Its change in vivo at 0.2 % strength is -15%.

Q: What about the change in vivo at 0.2 % strength [2] of the same molecule?
A: Its change in vivo at 0.2 % strength is -41%.

Q: What does the source list for `CCCCCCCCCCCCCCCCC1CNc2ccc(C(=O)OC)cc21` (racemic) [Compound BNN, (RS)-methyl 3-(n-hexadecyl)indoline-5-carboxylate]?
A: change in vivo at 0.2 % strength [1]: 7%; change in vivo at 0.2 % strength [2]: -20%

Q: How did the change in vivo at 0.2 % strength [1] turn out when `CCCCCCCCCCCCCCCCCCC1CNc2ccc(C(=O)O)cc21` (racemic) [Compound BOO, (RS)-3-(n-octadecyl)indoline-5-carboxylic acid] was run?
A: Its change in vivo at 0.2 % strength is 3%.

Q: And the change in vivo at 0.2 % strength [2]?
A: The change in vivo at 0.2 % strength was 9%.

Q: How did the change in vivo at 0.2 % strength [1] turn out when `CCCCCCCCCCC1CNc2ccc(C(=O)O)cc21` (racemic) [Compound BPP, (RS)-3-(n-decyl)indoline-5-carboxylic acid] was run?
A: Its change in vivo at 0.2 % strength is -3%.

Q: What about the change in vivo at 0.2 % strength [2] of the same molecule?
A: Its change in vivo at 0.2 % strength is 0%.

Q: `CCCCCCCCC1CNc2ccc(C(=O)O)cc21` (racemic) [Compound BQQ, (RS)-3-(n-octyl)indoline-5-carboxylic acid] was tested. Which change in vivo at 0.2 % strength [1] did it give?
A: Its change in vivo at 0.2 % strength is 11%.

Q: And the change in vivo at 0.2 % strength [2]?
A: The change in vivo at 0.2 % strength was 31%.

Q: What does the source list for `CCCCCCCCCCC1CNc2cc(C(=O)O)ccc21` (racemic) [Compound BYY, (RS)-3-(n-decyl)indoline-6-carboxylic acid]?
A: change in vivo at 0.2 % strength [1]: -23%; change in vivo at 0.2 % strength [2]: -50%

Q: Which results are given for `CCCCCCCCCCCCCCCC1CNc2cc(C(=O)O)ccc21` (racemic) [Compound BZZ, (RS)-3-(n-pentadecyl)indoline-6-carboxylic acid]?
A: change in vivo at 0.2 % strength [1]: -1%; change in vivo at 0.2 % strength [2]: -29%

Q: With `CCCCCCCCCCCCC1CNc2cc(C(=O)O)ccc21` (racemic) [Compound CAA, (RS)-3-(n-dodecyl)indoline-6-carboxylic acid] as the molecule, how does the change in vivo at 0.2 % strength [1] read?
A: The change in vivo at 0.2 % strength was -28%.

Q: What about the change in vivo at 0.2 % strength [2] of the same molecule?
A: Its change in vivo at 0.2 % strength is -46%.

Q: With `CCCCCCCCCCCCCCCCCCC1CNc2cc(C(=O)O)ccc21` (racemic) [Compound CBB, (RS)-3-(n-octadecyl)indoline-6-carboxylic acid] as the molecule, how does the change in vivo at 0.2 % strength [1] read?
A: Its change in vivo at 0.2 % strength is 2%.

Q: And the change in vivo at 0.2 % strength [2]?
A: Its change in vivo at 0.2 % strength is -7%.

Q: `CCCCCCCCC1CNc2cc(C(=O)O)ccc21` (racemic) [Compound CCC, (RS)-3-(n-octyl)indoline-6-carboxylic acid] was tested. Which change in vivo at 0.2 % strength [1] did it give?
A: The change in vivo at 0.2 % strength was -11%.

Q: What about the change in vivo at 0.2 % strength [2] of the same molecule?
A: The change in vivo at 0.2 % strength was -28%.

Q: What does the source list for `CCCCCCCCCCCCCCCCC1CNc2cc(C(=O)O)ccc21` (racemic) [Compound CDD, (RS)-3-(n-hexadecyl)indoline-6-carboxylic acid]?
A: change in vivo at 0.2 % strength [1]: -19%; change in vivo at 0.2 % strength [2]: -41%

Q: Which results are given for `CCCCCCCCC1CNc2cc(C(=O)OC)ccc21` (racemic) [Compound CEE, (RS)-methyl 3-(n-octyl)indoline-6-carboxylate]?
A: change in vivo at 0.2 % strength [1]: -16%; change in vivo at 0.2 % strength [2]: -16%

Q: With `CCCCCCCCCCCCCCCCC1CNc2cc(C(=O)OC)ccc21` (racemic) [Compound CFF, (RS)-methyl 3-(n-hexadecyl)indoline-6-carboxylate] as the molecule, how does the change in vivo at 0.2 % strength [1] read?
A: The change in vivo at 0.2 % strength was 6%.

Q: What about the change in vivo at 0.2 % strength [2] of the same molecule?
A: The change in vivo at 0.2 % strength was 10%.

Q: Which change in vivo at 0.1 % strength [3] does the source give for `CCCCCCCCCCCc1cc2ccc(C(=O)OCC(O)CO)cc2[nH]1` (racemic) [Compound CVV, (RS)-2,3-dihydroxyprop-1-yl 2-(n-undecyl)indole-6-carboxylate] here?
A: Its change in vivo at 0.1 % strength is -16%.

Q: And the change in vivo at 0.1 % strength [4]?
A: Its change in vivo at 0.1 % strength is -56%.

Q: For `CCCCCCCCCC(C)c1cc2cc(C(=O)O)ccc2[nH]1` (racemic) [Compound RR, (RS)-2-(1-methyldecyl)indole-5-carboxylic acid], which change in vivo at 0.2 % strength [1] is on record?
A: Its change in vivo at 0.2 % strength is -7%.

Q: What about the change in vivo at 0.2 % strength [2] of the same molecule?
A: Its change in vivo at 0.2 % strength is -88%.

Q: With `CCCCCCCCCC(C)c1cc2ccc(C(=O)O)cc2[nH]1` (racemic) [Compound VV, (RS)-2-(1-methyldecyl)indole-6-carboxylic acid] as the molecule, how does the change in vivo at 0.2 % strength [1] read?
A: The change in vivo at 0.2 % strength was -40%.

Q: What about the change in vivo at 0.2 % strength [2] of the same molecule?
A: Its change in vivo at 0.2 % strength is -73%.

Q: Which results are given for `CCCCCCCCCCCC1Cc2cc(C(=O)O)ccc2N1` (racemic) [Compound YY, (RS)-2-(n-undecyl)indoline-5-carboxylic acid]?
A: change in vivo at 0.03 % strength [3]: -25%; change in vivo at 0.03 % strength [4]: -51%; change in vivo at 0.1 % strength [3]: -21%; change in vivo at 0.1 % strength [4]: -65%; change in vivo at 0.2 % strength [1]: -32%; change in vivo at 0.2 % strength [2]: -64%

Q: Which change in vivo at 0.2 % strength [1] does the source give for `CCCCCCCCCCC1Cc2ccc(C(=O)O)cc2N1` (racemic) [Compound ZZ, (RS)-2-(n-decyl)indoline-6-carboxylic acid] here?
A: The change in vivo at 0.2 % strength was -32%.

Q: What about the change in vivo at 0.2 % strength [2] of the same molecule?
A: The change in vivo at 0.2 % strength was -77%.

Q: What does the source list for `CCCCCCCCCCCc1cc2ccc(C(=O)O)cc2[nH]1` [C sodium salt]?
A: % change in serum cholesterol compared with control (0.2 % w/w dose in diet, oral): -41%; % change in serum triglycerides compared with control (0.2 % w/w dose in diet, oral): -46%

Q: Which change in vivo at 0.2 % strength [1] does the source give for `CCCCCCCCCCCCCc1cc2ccc(C(=O)O)cc2[nH]1` [Compound A, 2-(n-tridecyl)indole-6-carboxylic acid] here?
A: Its change in vivo at 0.2 % strength is -26%.

Q: What about the change in vivo at 0.2 % strength [2] of the same molecule?
A: The change in vivo at 0.2 % strength was -33%.

Q: How did the change in vivo at 0.2 % strength [1] turn out when `CCCCCCCCCCCCCCCCCCCCc1cc2cc(C(=O)O)ccc2[nH]1` [Compound AA, 2-(n-eicosyl)indole-5-carboxylic acid] was run?
A: Its change in vivo at 0.2 % strength is -36%.

Q: And the change in vivo at 0.2 % strength [2]?
A: The change in vivo at 0.2 % strength was -57%.

Q: How did the change in vivo at 0.2 % strength [1] turn out when `CCCCCCCc1cc2ccc(C(=O)OC)cc2[nH]1` [Compound AII, methyl 2-(n-heptyl)indole-6-carboxylate] was run?
A: Its change in vivo at 0.2 % strength is 7%.

Q: What about the change in vivo at 0.2 % strength [2] of the same molecule?
A: The change in vivo at 0.2 % strength was 20%.

Q: `CCCCCCCc1cc2ccc(C(=O)OCCCC)cc2[nH]1` [Compound AKK, n-butyl 2-(n-heptyl)indole-6-carboxylate] was tested. Which change in vivo at 0.2 % strength [1] did it give?
A: Its change in vivo at 0.2 % strength is -3%.

Q: And the change in vivo at 0.2 % strength [2]?
A: The change in vivo at 0.2 % strength was -10%.
